{
  "source": "patent US20170015555A1",
  "about": "“LONG-TERM PRESERVATION AND NOVEL APPLICATION OF CHLOROUS ACID AQUEOUS SOLUTION FORMULATION” (priority 2013, published 2017)",
  "key": {"[1]": {"tested_on": "E. coli: Escherichia coli IF03927", "experiment": "Sterilizing effect on floor surface after wiping off imitation vomit, tatami mattress", "format": "cell-based", "conditions": "1000 ppm available chlorine", "description": "(§1) 1) Chlorous acid aqueous solution formulation (see Example 1: Table 11) Treatment sheet (material: 100% cotton): (about 27×40 cm) *Impregnated at a ratio of weight of treatment sheet (g): amount of liquid (ml)=1:3 2) Imitation vomit Miso solution: adjusted to pH of 2 with hydrochloric acid 3) Test Microbes that were Used E. coli: Escherichia coli IF03927 Staphylococcus aureus: Staphylococcus aureus IF0 12732 Thermoduric Microbes (Bacillus cereus): Bacillus cereus NBRC15305 Microbes of the genus Salmonella: Salmonella Enteritidis IF03313 Enterohemorrhagic Escherichia coli O157: Escherichia coli O157 Enterohemorrhagic Escherichia coli O111: Escherichia coli O111 Enterohemorrhagic Escherichia coli O26: Escherichia coli O26\n(§2) (1) Imitation vomit was spread in an area about the size of an A4 sheet. (2) 5 dry sheets were laid thereon. (3) An agent solution was poured on the dry sheets to wipe off the imitation vomit. (4) A cotton swab was soaked with sterile saline. A portion where imitation vomit was spread was scrubbed with the cotton swab to collect microbes remaining on the floor. After suspending in saline, the solution was spread on a petri dish and cultured. The number of each of the microbes was measured. (5) Test operations 3 and 4 were repeated a total of 7 times (repeated until the imitation vomit could be removed completely)."}, "[2]": {"tested_on": "Enterohemorrhagic Escherichia coli O111", "experiment": "Sterilizing effect on floor surface after wiping off imitation vomit, tatami mattress", "format": "cell-based", "conditions": "1000 ppm", "description": "as §1, §2"}, "[3]": {"tested_on": "Enterohemorrhagic Escherichia coli O157", "experiment": "Sterilizing effect on floor surface after wiping off imitation vomit, tatami mattress", "format": "cell-based", "conditions": "1000 ppm available chlorine", "description": "as §1, §2"}, "[4]": {"tested_on": "Staphylococcus aureus IF0 12732", "experiment": "Sterilizing effect on floor surface after wiping off imitation vomit, tatami mattress", "format": "cell-based", "conditions": "1000 ppm available chlorine", "description": "as §1, §2"}, "[5]": {"experiment": "Deodorizing effect (chemical deodorization, gas detector tube)", "conditions": "400 ppm, spray 20 cc", "description": "In order to evaluate tests on deodorizing effects, the present Example examined deodorizing effects by using standards regarding air freshening and deodorization ([II]-2 Method of Testing Deodorizing Efficacy (Chemical Deodorization)) set forth by the Air Fresheners and Deodorizers Conference (http://www.houkou.gr.jp/) as the efficacy testing method, which is adopted by Japan Food Research Laboratories.\nAmmonium odor: Ammonium Standard Solution II (Wako Pure Chemical Industries, for testing malodorous substances) Amine odor: methyl mercaptan standard solution (Wako Pure Chemical Industries, for testing malodorous substances) Sulfur odor: hydrogen sulfide (self-made, used hydrogen sulfide that was generated by adding sulfuric acid to zinc sulfide)\nGas detector tube made by GASTEC Corporation Ammonium odor: Detector tube ammonium 3 L made by GASTEC Corporation Amino odor: Detector tube methyl mercaptan 71 made by GASTEC Corporation Sulfur odor: Detector tube hydrogen sulfide 4 LL made by GASTEC Corporation\nTests were conducted in compliance with ([II]-2 Method of Testing Deodorizing Efficacy (Chemical Deodorization)) set forth by the Air Fresheners and Deodorizers Conference.\nThe tests were carried out by static culture method, using a commercially-available airbag with a spigot having a volume of about 10 L as test containers. The volume of airbags was appropriately changed in accordance with the size of the product.\nThe bags were filled with odorless air. Malodor concentrations were measured over time at room temperature (about 20° C.). (3 points or higher, detection tube method (FIG. 16), measured by an instrument analysis method or olfactory measurement method. When decrease in the blank was observed, the decrease was suitably corrected. When measuring by olfactory measuring method, the airbag spigot was opened for direct sniffing, or gas was transferred to an odor bag while wearing a mask to perform olfactory measurement in an autonomic respiration form. Measured air was not returned to the source).\nNext, for amine odor (methyl mercaptan), the residual concentrations were detected and recorded for control (no specimen), 20 ml (cc) of distilled water, sodium hypochlorite (expressed as Na hypochlorite, 400 ppm), and chlorous acid aqueous solution (expressed as CAAS, 400 ppm) prior to spraying and 0 hour, 3 hours, 6 hours, 9 hours, and 24 hours after spraying. The experiment was conducted twice."}, "[6]": {"conditions": "first experiment (Table 55), 0 h after spraying"}, "[7]": {"conditions": "first experiment (Table 55), 3 h after spraying"}, "[8]": {"conditions": "first experiment (Table 55), 6 h after spraying"}, "[9]": {"conditions": "first experiment (Table 55), 9 h after spraying"}, "[10]": {"conditions": "first experiment (Table 55), 24 h after spraying"}, "[11]": {"conditions": "first experiment (Table 55), before spraying"}, "[12]": {"conditions": "second experiment (Table 56), 0 h after spraying"}, "[13]": {"conditions": "second experiment (Table 56), 3 h after spraying"}, "[14]": {"conditions": "second experiment (Table 56), 6 h after spraying"}, "[15]": {"conditions": "second experiment (Table 56), 9 h after spraying"}, "[16]": {"conditions": "second experiment (Table 56), 24 h after spraying"}, "[17]": {"conditions": "second experiment (Table 56), before spraying"}},
  "data": [
    {"compound": "OCl", "note": "[Sodium Hypochlorite, sodium hypochlorite]", "values": [
      {"measurement": "microbes remaining, wiped 1 Time", "setting": "[1]; stored at 25° C. Day 0", "value": "<10"},
      {"measurement": "microbes remaining, wiped 2 Times", "setting": "[1]; stored at 25° C. Day 0", "value": "<10"},
      {"measurement": "microbes remaining, wiped 3 Times", "setting": "[1]; stored at 25° C. Day 0", "value": "<10"},
      {"measurement": "microbes remaining, wiped 1 Time", "setting": "[1]; stored at 25° C. Day 7", "value": "<10"},
      {"measurement": "microbes remaining, wiped 2 Times", "setting": "[1]; stored at 25° C. Day 7", "value": "<10"},
      {"measurement": "microbes remaining, wiped 3 Times", "setting": "[1]; stored at 25° C. Day 7", "value": "<10"},
      {"measurement": "Number of Times Wiped 1 Time (remaining microbes)", "setting": "[2]; stored at 25° C. Day 0", "value": "<10"},
      {"measurement": "Number of Times Wiped 2 Times (remaining microbes)", "setting": "[2]; stored at 25° C. Day 0", "value": "<10"},
      {"measurement": "Number of Times Wiped 3 Times (remaining microbes)", "setting": "[2]; stored at 25° C. Day 0", "value": "<10"},
      {"measurement": "Number of Times Wiped 1 Time (remaining microbes)", "setting": "[2]; stored at 25° C. Day 7", "value": "<10"},
      {"measurement": "Number of Times Wiped 2 Times (remaining microbes)", "setting": "[2]; stored at 25° C. Day 7", "value": "<10"},
      {"measurement": "Number of Times Wiped 3 Times (remaining microbes)", "setting": "[2]; stored at 25° C. Day 7", "value": "<10"},
      {"measurement": "Number of Times Wiped 1 Time (remaining microbes)", "setting": "[3]; stored at 25° C. Day 0", "value": "<10"},
      {"measurement": "Number of Times Wiped 2 Times (remaining microbes)", "setting": "[3]; stored at 25° C. Day 0", "value": "<10"},
      {"measurement": "Number of Times Wiped 3 Times (remaining microbes)", "setting": "[3]; stored at 25° C. Day 0", "value": "<10"},
      {"measurement": "Number of Times Wiped 1 Time (remaining microbes)", "setting": "[3]; stored at 25° C. Day 7", "value": "<10"},
      {"measurement": "Number of Times Wiped 2 Times (remaining microbes)", "setting": "[3]; stored at 25° C. Day 7", "value": "<10"},
      {"measurement": "Number of Times Wiped 3 Times (remaining microbes)", "setting": "[3]; stored at 25° C. Day 7", "value": "<10"},
      {"measurement": "microbes remaining, wiped 1 Time", "setting": "[4]; stored at 25° C. Day 0", "value": "<10"},
      {"measurement": "microbes remaining, wiped 2 Times", "setting": "[4]; stored at 25° C. Day 0", "value": "<10"},
      {"measurement": "microbes remaining, wiped 3 Times", "setting": "[4]; stored at 25° C. Day 0", "value": "<10"},
      {"measurement": "microbes remaining, wiped 1 Time", "setting": "[4]; stored at 25° C. Day 7", "value": "<10"},
      {"measurement": "microbes remaining, wiped 2 Times", "setting": "[4]; stored at 25° C. Day 7", "value": "<10"},
      {"measurement": "microbes remaining, wiped 3 Times", "setting": "[4]; stored at 25° C. Day 7", "value": "<10"},
      {"measurement": "residual concentration of methyl mercaptan, after correction (Control = 100)", "setting": "[5]; [6]", "value": 22},
      {"measurement": "residual concentration of methyl mercaptan, before correction", "setting": "[5]; [6]", "value": 20, "unit": "ppm"},
      {"measurement": "residual concentration of methyl mercaptan, after correction (Control = 100)", "setting": "[5]; [7]", "value": 0},
      {"measurement": "residual concentration of methyl mercaptan, before correction", "setting": "[5]; [7]", "value": 0, "unit": "ppm"},
      {"measurement": "residual concentration of methyl mercaptan, after correction (Control = 100)", "setting": "[5]; [8]", "value": 0},
      {"measurement": "residual concentration of methyl mercaptan, before correction", "setting": "[5]; [8]", "value": 0, "unit": "ppm"},
      {"measurement": "residual concentration of methyl mercaptan, after correction (Control = 100)", "setting": "[5]; [9]", "value": 14},
      {"measurement": "residual concentration of methyl mercaptan, before correction", "setting": "[5]; [9]", "value": 5, "unit": "ppm"},
      {"measurement": "residual concentration of methyl mercaptan, after correction (Control = 100)", "setting": "[5]; [10]", "value": 25},
      {"measurement": "residual concentration of methyl mercaptan, before correction", "setting": "[5]; [10]", "value": 6, "unit": "ppm"},
      {"measurement": "residual concentration of methyl mercaptan, after correction (Control = 100)", "setting": "[5]; [11]", "value": 100},
      {"measurement": "residual concentration of methyl mercaptan, before correction", "setting": "[5]; [11]", "value": 90, "unit": "ppm"},
      {"measurement": "residual concentration of methyl mercaptan, after correction (Control = 100)", "setting": "[5]; [12]", "value": 11},
      {"measurement": "residual concentration of methyl mercaptan, before correction", "setting": "[5]; [12]", "value": 8, "unit": "ppm"},
      {"measurement": "residual concentration of methyl mercaptan, after correction (Control = 100)", "setting": "[5]; [13]", "value": 11},
      {"measurement": "residual concentration of methyl mercaptan, before correction", "setting": "[5]; [13]", "value": 5, "unit": "ppm"},
      {"measurement": "residual concentration of methyl mercaptan, after correction (Control = 100)", "setting": "[5]; [14]", "value": 12},
      {"measurement": "residual concentration of methyl mercaptan, before correction", "setting": "[5]; [14]", "value": 5, "unit": "ppm"},
      {"measurement": "residual concentration of methyl mercaptan, after correction (Control = 100)", "setting": "[5]; [15]", "value": 24},
      {"measurement": "residual concentration of methyl mercaptan, before correction", "setting": "[5]; [15]", "value": 7, "unit": "ppm"},
      {"measurement": "residual concentration of methyl mercaptan, after correction (Control = 100)", "setting": "[5]; [16]", "value": 35},
      {"measurement": "residual concentration of methyl mercaptan, before correction", "setting": "[5]; [16]", "value": 5, "unit": "ppm"},
      {"measurement": "residual concentration of methyl mercaptan, after correction (Control = 100)", "setting": "[5]; [17]", "value": 100},
      {"measurement": "residual concentration of methyl mercaptan, before correction", "setting": "[5]; [17]", "value": 70, "unit": "ppm"}
    ]}
  ]
}
